Reference: patent US9533064B1, “Device and method for decontamination, disinfection, and sanitation” (Nanomist Systems, LLC, priority 2013, dated 2017)

Test system: G. Stearothermophilus
[1] = 36-m^3 room and 110-m^3 carpeted rooms, initial 40-55% RH, 20-25 C, biological indicators in Tyvek pouches

Protocol: The application of condensed vapor cloud generated biocide dispersion was tested in a 36-m^3 single room and in 110-m^3 two-room model (family room+bathroom). The single room was tiled floor and two-room model had wall-to-wall carpet. With initial room humidity in the range 40-55% RH and 20-25 C, decontamination tests were carried out using biological indicators (BI). Biological indicator test disks were prepared by Mesa Labs. The Biological indicators are inoculated with 4-log, 5-log and 6-log populations of G. Stearothermophilus. The BI's are in Tyvek pouches. […] The condensed vapor generator was calibrated with scaling of room size, mass concentration, carpet/tilled floor, and initial RH and temperature.

OO [HP, hydrogen peroxide]
HP concentration above which 5-log kills were observed [1]: above 0.7 g/m^3 | HP concentration above which 6-log kill was observed [1]: above 1.8 g/m^3 | kill time (HP mass injection rate of −50 g/min): 10 to 15 min
